Test results taken from ChEMBL document CHEMBL1201862, “PubChem BioAssay data set” (2004).
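Protocol summary: plate cells (96-well), add compound at 5 concentrations, incubate 48 h, interpolate endpoints linearly. At the GI50, growth is halved.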 Calls of active or inactive are those of the source. Rule as the data show it: active = GI50 up to about 1.1 µM and inactive = higher.

Key:
Experiment in all cases: NCI-60 cell line screen, 48 h
[1] = tested on: M19-MEL
[2] = tested on: ACHN
[3] = tested on: 786-0
[4] = tested on: T47D
[5] = tested on: BT-549
[6] = tested on: HOP-18
[7] = tested on: TK-10
[8] = tested on: LXFL 529
[9] = tested on: RXF 631

SMILES | GI50 [1] | GI50 [2] | GI50 [4] | GI50 [6] | GI50 [7] | further results
O=NN(CCCl)C(=O)Nc1ccc(Cl)c(Cl)c1 | 69.5 µM (inactive) | – | – | – | – | –
CC(=O)Nc1ccc2oc(=O)c3ccccc3c2c1 | – | > 100 µM (inactive) | > 100 µM (inactive) | – | – | GI50 [3]: > 100 µM (inactive); GI50 [5]: > 100 µM (inactive)
CC(C)[C@](O)(C(=O)OCC1CC[N+]2([O-])CC[C@@H](O)C12)[C@H](C)O (stereo partly drawn) | > 375 µM (inactive) | – | – | 105 µM (inactive) | – | –
CCOC(=O)CN1CCS/C1=N/C#N | > 100 µM (inactive) | – | – | > 100 µM (inactive) | – | –
Cc1cn(C2CC(O)C(Cn3cc(Cn4nc(Br)c(=O)[nH]c4=O)nn3)O2)c(=O)[nH]c1=O (stereo not drawn) | – | > 100 µM (inactive) | > 100 µM (inactive) | – | > 100 µM (inactive) | GI50 [5]: > 100 µM (inactive)
C[N+](C)(CCO)CCN1c2ccccc2Sc2ccccc21 | – | > 10 µM (inactive) | > 10 µM (inactive) | – | > 10 µM (inactive) | –
COc1ccc2c(c1)c1c(n2CCN2CCCCC2)-c2cccc(OC)c2CC1 | – | 17.5 µM (inactive) | 16.3 µM (inactive) | – | 15 µM (inactive) | GI50 [3]: 20.2 µM (inactive); GI50 [5]: 13.9 µM (inactive)
COC1CCC(CO)OO1 (stereo not drawn) | 60.4 µM (inactive) | 38.2 µM (inactive) | – | – | – | GI50 [8]: 8.71 µM (inactive)
CC(=O)NC(CCCCNC(=O)OC(C)(C)C)C(=O)O (stereo not drawn) | – | > 100 µM (inactive) | > 100 µM (inactive) | – | > 100 µM (inactive) | –
O=C1OC2CC=CC1C2 (stereo not drawn) | > 100 µM (inactive) | – | – | > 100 µM (inactive) | – | –
CC[C@]12C=CCN3CC[C@@]4(c5ccc(OC)cc5N(C)[C@H]4[C@@](O)(C(=O)OC)[C@@H]1OC(C)=O)[C@@H]32 | 57.5 µM (inactive) | – | – | > 200 µM (inactive) | – | –
COc1ccc(C[C@H](N)C(=O)N2C[C@@H](CO)C[C@@H](n3cnc4c(N(C)C)ncnc43)C2)cc1 | > 100 µM (inactive) | – | – | > 100 µM (inactive) | > 100 µM (inactive) | GI50 [8]: > 100 µM (inactive); GI50 [3]: > 100 µM (inactive)
CSC1=C(SC)C(=O)c2cn(C)c(=O)cc2C1=O | – | 1.81 µM (inactive) | 2.05 µM (inactive) | – | 2.33 µM (inactive) | GI50 [5]: 2.14 µM (inactive)
COc1ccc(NC(=S)NNC(=O)c2nsc3ccccc23)cc1 | 33 µM (inactive) | 43.9 µM (inactive) | – | – | 43.4 µM (inactive) | GI50 [8]: 39.4 µM (inactive)
CC1=CC(O)C(O)C2(C)C1CC1OC(=O)C(O)C3C(C)C(O)C4(O)OCC13C42 (stereo not drawn) | 56 µM (inactive) | – | – | 155 µM (inactive) | – | –
CC(C)(C)[Si](C)(C)OCCCC#CCO | – | > 100 µM (inactive) | – | < 0.01 µM (active) | > 100 µM (inactive) | GI50 [8]: > 100 µM (inactive); GI50 [9]: > 100 µM (inactive)
CSCCC(NOC(=O)Cc1ccccc1)P(=O)(O)c1ccccc1 (stereo not drawn) | – | > 100 µM (inactive) | > 100 µM (inactive) | – | > 100 µM (inactive) | –
Nc1ncnc2c1nnn2C1OC(CO)C(O)C1O (stereo not drawn) | 8.57 µM (inactive) | – | – | 2.69 µM (inactive) | – | –
CCNC(=O)C(C)C1CCC2(C)C=CC(=O)C(C)=C2C1O (stereo not drawn) | > 100 µM (inactive) | – | – | > 100 µM (inactive) | – | –
